Assays:
[1] = test system: KRas-mediated phosphorylation of ERK in H727 cells; assay: Inhibition of KRas-mediated phosphorylation of ERK (Cisbio HTRF pERK), H727 cells; format: cell-based; settings: Homo sapiens; for IC50: NCI-H727, H727 cells, HTRF pERK
In short: (§1)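 H358, H727, H460 and AsPC-1 cells seeded at 6,000/well, treated 3 hrs with 10-dose 3-fold dilutions from 10 uM (0.8% DMSO); 0.2 uM trametinib as min control. Lysed 40 min at 4° C; lysate incubated 2 hrs at room temperature with d2/cryptate antibodies, HTRF read.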

KRas^G12D = target: T1, KRas^G12D (Homo sapiens, UniProt P01116, G12D); assay: KRas binding assay (TR-FRET tracer displacement), KRas G12D
T1 construct: Biotinylated KRas (corresponding to amino acids 1-169, produced at Accelegan Inc.); biotin (biotinylated); purchased Accelegan Inc
T1 sequence (P01116 1-169 isoform P01116-2 G12D): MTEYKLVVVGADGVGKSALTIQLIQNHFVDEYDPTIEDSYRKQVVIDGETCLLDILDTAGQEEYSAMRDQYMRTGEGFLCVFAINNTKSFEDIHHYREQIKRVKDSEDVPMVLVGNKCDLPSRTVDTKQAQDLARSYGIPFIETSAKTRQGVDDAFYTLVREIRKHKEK

[2] = test system: KRas-mediated phosphorylation of ERK in PSN1 cells; assay: Inhibition of KRas-mediated phosphorylation of ERK (Cisbio HTRF pERK), PSN1 cells; format: cell-based; settings: Homo sapiens
In short: (§2)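 Day 1 seeding: 6,000 cells per well, RPMI/10% FBS, left overnight at 37° C. with 5% CO2. Plates then stood covered for 4 h at room temperature prior to HTRF detection of pERK.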

[3] = test system: KRas-mediated phosphorylation of ERK in MKN1 cells; assay: Inhibition of KRas-mediated phosphorylation of ERK (Cisbio HTRF pERK), MKN1 cells; format: cell-based; settings: Homo sapiens, MKN-1
In short: as §2

[4] = test system: KRas-mediated phosphorylation of ERK in A549 cells; assay: Inhibition of KRas-mediated phosphorylation of ERK (Cisbio HTRF pERK), A549 cells; format: cell-based; settings: Homo sapiens; for inhibition at 0.1 µM: A549, 3 h, single point, 100 nM compound, 3 hrs; for IC50: HTRF pERK
In short: (§3)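 Using 6,000 cells per well, compounds are applied for 3 hrs and cells then lysed at 4° C with shaking for 40 mins. Phospho-ERK is measured by HTRF after 2 hrs of lysate incubation with the d2/Cryptate antibody mixture.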

[5] = test system: KRas-mediated phosphorylation of ERK in HCT116 cells; assay: Inhibition of KRas-mediated phosphorylation of ERK (Cisbio HTRF pERK), HCT116 cells; format: cell-based; settings: Homo sapiens; for inhibition at 0.1 µM: HCT-116, 3 h, single point, 100 nM compound, 3 hrs; for IC50: HCT-116, HTRF pERK
In short: as §3

[6] = test system: KRas-mediated phosphorylation of ERK in H358 cells; assay: Inhibition of KRas-mediated phosphorylation of ERK (Cisbio HTRF pERK), H358 cells; format: cell-based; settings: Homo sapiens; for inhibition at 0.1 µM: NCI-H358, 3 h, single point, 100 nM compound, 3 hrs; for IC50: NCI-H358, HTRF pERK
In short: as §1

KRas^G12R = target: T2, KRas^G12R (Homo sapiens, UniProt P01116, G12R); assay: KRas binding assay (TR-FRET tracer displacement), KRas G12R
T2 construct: Biotinylated KRas (corresponding to amino acids 1-169, produced at Accelegan Inc.); biotin (biotinylated); purchased Accelegan Inc
T2 sequence (P01116 1-169 isoform P01116-2 G12R): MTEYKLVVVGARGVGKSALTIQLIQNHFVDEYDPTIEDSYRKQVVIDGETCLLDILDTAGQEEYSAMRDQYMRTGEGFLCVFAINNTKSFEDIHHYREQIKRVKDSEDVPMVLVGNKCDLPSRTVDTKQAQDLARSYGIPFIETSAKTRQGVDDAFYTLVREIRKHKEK

[7] = test system: KRas-mediated phosphorylation of ERK in H460 cells; assay: Inhibition of KRas-mediated phosphorylation of ERK (Cisbio HTRF pERK), H460 cells; format: cell-based; settings: Homo sapiens; for inhibition at 0.1 µM: NCI-H460, 3 h, single point, 100 nM compound, 3 hrs; for IC50: NCI-H460, HTRF pERK
In short: as §1

KRas^G12V = target: T3, KRas^G12V (Homo sapiens, UniProt P01116, G12V); assay: KRas binding assay (TR-FRET tracer displacement), KRas G12V
T3 construct: Biotinylated KRas (corresponding to amino acids 1-169, produced at Accelegan Inc.); biotin (biotinylated); purchased Accelegan Inc
T3 sequence (P01116 1-169 isoform P01116-2 G12V): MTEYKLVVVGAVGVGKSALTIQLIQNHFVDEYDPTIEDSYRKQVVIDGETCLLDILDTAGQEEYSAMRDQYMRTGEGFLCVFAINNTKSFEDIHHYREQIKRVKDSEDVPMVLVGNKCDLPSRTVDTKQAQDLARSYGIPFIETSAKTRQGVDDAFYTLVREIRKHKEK

[8] = test system: KRas-mediated phosphorylation of ERK in AsPC-1 cells; assay: Inhibition of KRas-mediated phosphorylation of ERK (Cisbio HTRF pERK), AsPC-1 cells; format: cell-based; settings: Homo sapiens; for IC50: ASPC1, AsPC-1 cells, HTRF pERK
In short: as §1

| SMILES | inhibition at 0.1 µM ([1]; NCI-H727, 3 h, single point, 100 nM compound, 3 hrs, H727 cells) | IC50 [1] | IC50 (KRas^G12D) | IC50 [2] | IC50 [3] | inhibition at 0.1 µM [4] | inhibition at 0.1 µM [5] | inhibition at 0.1 µM [6] | IC50 (KRas^G12R) | inhibition at 0.1 µM [7] | IC50 (KRas^G12V) | inhibition at 0.1 µM ([8]; ASPC1, 3 h, single point, 100 nM compound, 3 hrs, AsPC-1 cells) | IC50 [8] | IC50 [4] | IC50 [5] | IC50 [6] | IC50 [7] |
| --- | --- | --- | --- | --- | --- | --- | --- | --- | --- | --- | --- | --- | --- | --- | --- | --- | --- |
| CCc1c(F)ccc2cc(O)cc(-c3ncc4c(N5CCC(C#N)CC5)nc(OC[C@@]56CCCN5C[C@H](F)C6)nc4c3F)c12 [Example 544, 1-(7-(8-ethyl-7-fluoro-3-hydroxynaphthalen-1-yl)-8-fluoro-2-(((2R,7aS)-2-fluorohexahydro-1H-pyrrolizin-7a-yl)methoxy)pyrido[4,3-d]pyrimidin-4-yl)piperidine-4-carbonitrile] | 30% | 79 nM | 22 nM | > 10000 nM | 25 nM | 59% | 5% | 67% | 4 nM | 46% | 3 nM | -13% | 455 nM |  |  |  |  |
| CCCCN(CCCC)C(=O)OC[C@@H]1CC[C@@]2(COc3nc(N4CCC[C@@](C)(O)C4)c4cnc(-c5cc(O)cc6ccc(F)c(CC)c56)c(F)c4n3)CCCN12 [Example 873, ((3S,7aR)-7a-(((7-(8-ethyl-7-fluoro-3-hydroxynaphthalen-1-yl)-8-fluoro-4-((R)-3-hydroxy-3-methylpiperidin-1-yl)pyrido[4,3-d]pyrimidin-2-yl)oxy)methyl)hexahydro-1H-pyrrolizin-3-yl)methyl dibutylcarbamate] |  | 408 nM | 7 nM | > 10000 nM | 198 nM |  |  |  | 12 nM |  | 7 nM |  | 93 nM | 135 nM | 325 nM | 149 nM | 194 nM |
| C#Cc1c(F)ccc2cc(O)cc(-c3ncc4c(N5CCCC6(CC(O)C6)C5)nc(OC[C@]56CCCN5[C@H](COC(=O)N(C)C)CC6)nc4c3F)c12 (stereo partly drawn) [Example 835, ((3S,7aR)-7a-(((7-(8-ethynyl-7-fluoro-3-hydroxynaphthalen-1-yl)-8-fluoro-4-(2-hydroxy-6-azaspiro[3.5]nonan-6-yl)pyrido[4,3-d]pyrimidin-2-yl)oxy)methyl)hexahydro-1H-pyrrolizin-3-yl)methyl dimethylcarbamate] |  | 72 nM | 3 nM | 1620 nM | 20 nM |  |  |  | < 2 nM |  | < 2 nM |  | 146 nM | 192 nM | 137 nM | 31 nM | 72 nM |
| CCc1c(F)ccc2cc(O)cc(-c3ncc4c(N5CCC[C@@](C)(O)C5)nc(OC[C@@]56CCCN5[C@H](COCC5CCCC5)CC6)nc4c3F)c12 [Example 904, (R)-1-(2-(((3S,7aS)-3-((cyclopentylmethoxy)methyl)tetrahydro-1H-pyrrolizin-7a(5H)-yl)methoxy)-7-(8-ethyl-7-fluoro-3-hydroxynaphthalen-1-yl)-8-fluoropyrido[4,3-d]pyrimidin-4-yl)-3-methylpiperidin-3-ol] |  | 121 nM | < 2 nM | 2510 nM | 4 nM |  |  |  | < 2 nM |  | < 2 nM |  | 30 nM | 112 nM | 167 nM | 21 nM | 53 nM |
| CCc1c(F)ccc2cc(O)cc(-c3ncc4c(N5C[C@H]6CC[C@@H](C5)[C@H]6O)nc(OC[C@@]56CCCN5C[C@H](F)C6)nc4c3F)c12 [Example 848, (1R,5S,8S)-3-(7-(8-ethyl-7-fluoro-3-hydroxynaphthalen-1-yl)-8-fluoro-2-(((2R,7aS)-2-fluorotetrahydro-1H-pyrrolizin-7a(5H)-yl)methoxy)pyrido[4,3-d]pyrimidin-4-yl)-3-azabicyclo[3.2.1]octan-8-ol] |  | 896 nM | 39 nM | > 10000 nM | 100 nM |  |  |  | 12 nM |  | 9 nM |  | 2060 nM | 809 nM | 496 nM | 310 nM | 275 nM |
| CCc1c(F)ccc2cc(O)cc(-c3ncc4c(N5CC6CCC(COCCOC)(C6)C5)nc(OC[C@@]56CCCN5C[C@H](F)C6)nc4c3F)c12 (stereo partly drawn) [Example 857, 5-ethyl-6-fluoro-4-(8-fluoro-2-(((2R,7aS)-2-fluorotetrahydro-1H-pyrrolizin-7a(5H)-yl)methoxy)-4-(1-((2-methoxyethoxy)methyl)-3-azabicyclo[3.2.1]octan-3-yl)pyrido[4,3-d]pyrimidin-7-yl)naphthalen-2-ol] |  | 352 nM | 19 nM | > 10000 nM | 6 nM |  |  |  | 9 nM |  | 6 nM |  | 967 nM | 611 nM | 410 nM | 369 nM | 144 nM |
| CCc1c(F)ccc2cc(O)cc(-c3ncc4c(N5CCCCC5)nc(OC[C@@]56CCCN5C[C@H](F)C6)nc4c3F)c12 [Example 900, 5-ethyl-6-fluoro-4-(8-fluoro-2-(((2R,7aS)-2-fluorotetrahydro-1H-pyrrolizin-7a(5H)-yl)methoxy)-4-(piperidin-1-yl)pyrido[4,3-d]pyrimidin-7-yl)naphthalen-2-ol] |  | 240 nM |  | > 10000 nM | 3 nM |  |  |  |  |  |  |  | 213 nM | 136 nM | 504 nM | 82 nM | 96 nM |
| CCc1c(F)ccc2cc(O)cc(-c3ncc4c(NCc5cc(C(=O)N(C)C)n(C(F)F)n5)nc(OC[C@@]56CCCN5C[C@H](F)C6)nc4c3F)c12 [Example 662, 1-(difluoromethyl)-3-(((7-(8-ethyl-7-fluoro-3-hydroxynaphthalen-1-yl)-8-fluoro-2-(((2R,7aS)-2-fluorohexahydro-1H-pyrrolizin-7a-yl)methoxy)pyrido[4,3-d]pyrimidin-4-yl)amino)methyl)-N,N-dimethyl-1H-pyrazole-5-carboxamide] |  | 274 nM | 3 nM | > 10000 nM | 57 nM | 22% |  | 22% | 3 nM |  | < 2 nM |  | 837 nM |  |  |  |  |
| CCc1c(F)ccc2cc(O)cc(-c3ncc4c(N5CCCc6ncccc6C5)nc(OC[C@@]56CCCN5C[C@H](F)C6)nc4c3F)c12 [Example 579, 5-ethyl-6-fluoro-4-(8-fluoro-2-(((2R,7aS)-2-fluorotetrahydro-1H-pyrrolizin-7a(5H)-yl)methoxy)-4-(5,7,8,9-tetrahydro-6H-pyrido[3,2-c]azepin-6-yl)pyrido[4,3-d]pyrimidin-7-yl)naphthalen-2-ol] |  | 369 nM | 5 nM | > 10000 nM | 37 nM |  |  |  | 3 nM |  | 6 nM |  | 155 nM | 357 nM | 1780 nM |  | 481 nM |
| CCc1c(F)ccc2cc(O)cc(-c3ncc4c(N5CCCc6nc(C(=O)N(C)C)ccc6C5)nc(OC[C@@]56CCCN5C[C@H](F)C6)nc4c3F)c12 [Example 666, 6-(7-(8-ethyl-7-fluoro-3-hydroxynaphthalen-1-yl)-8-fluoro-2-(((2R,7aS)-2-fluorohexahydro-1H-pyrrolizin-7a-yl)methoxy)pyrido[4,3-d]pyrimidin-4-yl)-N,N-dimethyl-6,7,8,9-tetrahydro-5H-pyrido[3,2-c]azepine-2-carboxamide] |  | 320 nM | < 2 nM | > 10000 nM | 18 nM |  | 24% |  | < 2 nM | 59% | 2 nM |  | 184 nM | 207 nM |  |  |  |
| CCc1c(F)ccc2cc(O)cc(-c3ncc4c(N5CCCn6nc(S(=O)(=O)N(C)C)cc6C5)nc(OC[C@@]56CCCN5C[C@H](F)C6)nc4c3F)c12 [Example 685, 5-(7-(8-ethyl-7-fluoro-3-hydroxynaphthalen-1-yl)-8-fluoro-2-(((2R,7aS)-2-fluorohexahydro-1H-pyrrolizin-7a-yl)methoxy)pyrido[4,3-d]pyrimidin-4-yl)-N,N-dimethyl-5,6,7,8-tetrahydro-4H-pyrazolo[1,5-a][1,4]diazepine-2-sulfonamide] |  | 1670 nM | < 2 nM | > 10000 nM | 9 nM |  |  |  | 6 nM |  | 8 nM |  | 245 nM | 1090 nM | 359 nM |  | 188 nM |
